Design: species or system patients
Method: Another example study is now described. In this example study, 14 patients with a variety of intracranial pathologies (including low- and high-grade gliomas, meningioma, and intracranial lung metastases, as indicated in FIG. 17) were administered 20-mg/kg of ALA 3 hours prior to induction of anesthesia. The neurosurgeon performed a conventional standard craniotomy procedure with image-guidance using a surgical microscope modified for PpIX fluorescence. At the surgical bed, the surgeon acquired multiple sets of measurements using an example probe, with corresponding tissue specimens collected and processed for histopathological analysis. […] In addition, the surgeon scored the visible fluorescence as viewed through the fluorescence-capable surgical microscope (scores from 0-4). All specimens were assessed as either normal or abnormal, such that presence of tumor cells was assessed as abnormal.
Receiver-Operator Characteristic Analysis: The receiver-operator characteristic (ROC) curves were generated using the PpIX concentrations as the parameter comparing normal tissue to these tumor populations: all tumors, all gliomas, low-grade gliomas (LGGs), high-grade gliomas (HGGs), meningiomas and metastases. […] The uncorrected fluorescence metric was the magnitude of the PpIX fluorescence peak from the raw fluorescence spectrum, i.e. Fx,m at 635 nm (see Eqs. 1 and 4). […]

C=CC1=C(C)c2cc3[nH]c(cc4nc(cc5[nH]c(cc1n2)c(C)c5CCC(=O)O)C(CCC(=O)O)=C4C)c(C)c3C=C [PpIX, protoporphyrin IX]
tumor-to-normal (T/N) ratio of in vivo PpIX concentration (human): 200 | PpIX in abnormal tissue compared to normal tissue (in vivo): approximately at least five times more PpIX
